Several values for one entry are separate records, joined by “and”; a condition that tells them apart may be missing. Identical values can stand only once. Entries after “also recorded” stand apart in the source; their conditions may differ.
How the values were obtained:
[1] = system: bleomycin-injured mice (pulmonary fibrosis); assay: EGCG treatment of bleomycin-injured mice monitored with Gd-9 MRI; format: in vivo, mouse
Procedure: Gd-9 is a Gd-DOTA derivative with two hydrazine arms synthesized by amide coupling of two tBu-piperazin-1-ylcarbamate groups to 1,4,7,10-tetraazacyclododecane-1,4-bis(tBu-acetate)-4,10-bis(glutaric acid 1-tBu ester), followed by acid deprotection and gadolinium complexation. C57Bl/6 adult male mice at 8 weeks of age received a single intratracheal dose of bleomycin, 1 U/kg body weight (50 μL total volume) as previously described. Pair-wise imaging study of GdCHyd and Gd-9 was carried out in mice at day 14 post bleomycin injury on a 4.7 T MRI with a dose of 100 μmol/kg of each probe. For the treatment study, mice were imaged first at day 10 post bleomycin injury, then treated daily with oral gavage of either epigallocatechin gallate (EGCG, 100 mg/kg) or PBS (vehicle) for 11 days. At day 21 post bleomycin injury, the animals were imaged again. MRI consisted of T1-weighted UTE (TR/TE/flip angle=4 ms/0.011 ms/15°) images acquired prior to and up to 30 minutes following intravenous administration of Gd-9 ([…]). Following the second imaging session, animals were euthanized (60 minutes post injection), and lung tissues were removed for further analysis.
The dual hydrazine probe Gd-9 was first compared to GdCHyd in a head-to head comparison in vivo. Mice were imaged 14 days after bleomycin injury first with Gd-CHyd and then 4 h later with Gd-9. […] Gd-9 was nexted used to monitor response to EGCG treatment in bleomycin-injured mice. Mice were imaged at 10 days after bleomycin injury and then the mice were treated with EGCG (100 mg/kg) or PBS (vehicle) for 11 days, and then the mice were imaged again (FIG. 14).

[2] = Reaction rates with 2-formylpyridine measured by HPLC-ICP-MS (Method A); format: physicochemical; conditions: Method a: 2-formylpyridine 1000 μM, probe 25 μM, pH 7.40 PBS
Procedure: Quantitative Measurement of Reaction Rates with Aldehydes: Method A: Reaction Rates of Compounds with 2-Formylpyridine Measured by HPLC-ICP-MS
Reactivity of aldehyde-binding probes were assessed in pH 7.40 phosphate-buffered saline under pseudo-first order conditions with 2-formylpyridine concentration of 1000 μM and probes at 25 μM. Concentrations of unreacted starting material and condensation products were determined at 12 min time intervals based on their relative integrations. The values were fit to a standard first order rate constant linear equation and the rate constant was extracted from the slope.

[3] = Relaxivity measurements in PBS; format: physicochemical; conditions: 1.4 T, 37° C.
Procedure: (§1) BSA-ALD (10 mg/mL) or BSA (10 mg/mL) were treated for 24 hours at 37° C. with the corresponding Gd or Mn complex at a range of concentrations (0.01-0.2 mM), with a total volume of 300 μL maintained for all samples. After 24 hours, an aliquot of the solution (50 μL) was used for longitudinal (T1) relaxation measurements, recorded using a Bruker mq60 Minispec at 1.41 T and 37° C. Longitudinal (T1) relaxation times were measured via an inversion recovery experiment using 10 inversions of duration ranging between 0.05×T1 and 10×T1. Solutions (concentration range: 0.1 mM-1.0 mM) in PBS were run in parallel. To measure the relaxivity of BSA-bound species, sodium cyanoborohydride (10 mg) was added to the solution to irreversibly bind the probe to the protein. After a further 2h incubation at 37° C., protein-bound and protein-free solutions were separated by ultrafiltration. Then 200 μL PBS was added to the residue to dissolve the protein. Longitudinal (T1) relaxation times for the bounded species were measured using a Bruker mq60 Minispec at 1.41 T and 37° C. After the measurement, concentration of corresponding metal ion (Gd/Mn) in the residue and filter were both determined using an Agilent 8800 ICP-MS system. Relaxivity (r1) was determined from the slope of a plot of 1/T1 vs metal concentration for 5 concentrations.

[4] = target: bovine serum albumin (BSA) (Bos taurus, UniProt P02769); assay: Relaxivity measurements with BSA; format: binding; conditions: 1.4 T, 37° C., BSA 10 mg/mL
bovine serum albumin (BSA), sequence (P02769 25-607): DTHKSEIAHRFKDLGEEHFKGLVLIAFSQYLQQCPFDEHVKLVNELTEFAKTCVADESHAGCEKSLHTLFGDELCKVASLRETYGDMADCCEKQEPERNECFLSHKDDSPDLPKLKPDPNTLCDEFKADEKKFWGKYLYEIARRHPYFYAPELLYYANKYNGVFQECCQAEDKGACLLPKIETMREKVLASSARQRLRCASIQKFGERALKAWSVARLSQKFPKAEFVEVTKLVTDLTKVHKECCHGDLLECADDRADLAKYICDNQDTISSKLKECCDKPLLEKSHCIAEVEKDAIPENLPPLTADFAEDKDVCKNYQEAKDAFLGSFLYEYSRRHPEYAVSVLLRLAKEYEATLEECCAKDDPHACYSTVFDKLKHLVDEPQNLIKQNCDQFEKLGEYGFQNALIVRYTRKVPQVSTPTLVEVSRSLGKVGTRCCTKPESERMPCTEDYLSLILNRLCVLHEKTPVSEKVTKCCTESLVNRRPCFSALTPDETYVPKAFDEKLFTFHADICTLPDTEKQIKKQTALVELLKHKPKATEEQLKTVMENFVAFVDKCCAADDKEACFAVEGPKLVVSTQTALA
Procedure: as §1

[5] = target: T1, BSA-ALD (oxidized bovine serum albumin containing allysine aldehyde groups) (Bos taurus, UniProt P02769); assay: Relaxivity measurements with BSA-Ald; format: binding; conditions: 37° C.; for r1, +BSA-Ald / r1, Bound to BSA-Ald: 1.4 T; for r1, +BSA-Ald: BSA-Ald 10 mg/mL; for r1, Bound to BSA-Ald: protein-bound species after NaBH3CN and ultrafiltration
T1 construct: made in house; host or cells: no expression host: BSA oxidised chemically with sodium ascorbate, ferric chloride and H2O2, then desalted on PD-10
T1 sequence (P02769 25-607): as above
Procedure: Preparation of Allysine Containing Bovine Serum Albumin, BSA-ALD:
To a solution of bovine serum albumin (BSA) (100 mg) dissolved in phosphate buffered saline (4 mL, pH 7.4, 0.25 mM), sodium ascorbate (20 mg), ferric chloride (120 μL, 10 mM) and 20 μL H2O2 (30% w) were added. The reaction was stirred at 37° C. for 24 hours, and sodium ascorbate (20 mg) was added repeatedly every 8 hours. After the reaction, protein was purified using PD-10 Sephadex G25 desalting columns (GE Healthcare), eluted with PBS. Protein concentration was assessed using the ‘BCA Protein Assay Kit’ (Thermo Scientific). Protein carbonyl concentration was determined by ‘Protein Carbonyl Content Assay Kit’ (Sigmal-Aldrich).
(§2) Alternatively, preparation of BSA^Ald and binding of Gd^3+ probe to protein was carried out according to modified procedures. To a solution of bovine serum albumin (BSA) (100 mg) dissolved in phosphate buffered saline (4 mL, pH 7.4, 0.25 mM) was added sodium ascorbate (20 mg), ferric chloride (120 μL, 10 mM) and 20 μL H2O2 (30% w). The reaction was stirred at 37° C. for 24 h, and sodium ascorbate (20 mg) was added repeatedly every 8 h. After 24 h, the protein was purified using PD-10 Sephadex G25 desalting columns (GE Healthcare), eluted with PBS. Protein concentration was assessed using the ‘Micro BCA Protein Assay Kit’ (Thermo Scientific, 23235). Protein carbonyl concentration was determined by ‘Protein Carbonyl Content Assay Kit’ (Sigma-Aldrich, MAK094-1KT). […] The protein solutions were kept at a concentration of 20 mg/mL for further use.
as §1

[6] = target: T2, BSA-ALD (Bos taurus, UniProt P02769); assay: Binding yield measurements of Gd^3+ complex with BSA^Ald (ultrafiltration, ICP-MS); design: species or system bovine; conditions: pH 7.4, PBS, 37° C., 12 h, ultrafiltration 5,000 Da cut-off
T2 construct: made in house; host or cells: no expression host: BSA oxidised chemically with sodium ascorbate, ferric chloride and H2O2, then desalted on PD-10
T2 sequence (P02769 25-607): as above
Procedure: FIG. 48. […] Binding concentration of the probes to BSA^Ald (pH 7.4, PBS, 37° C., 12 h) as determined by ICP-MS following an ultrafiltration (5,000 Da cut-off) to separate the protein-bound probe from the unbound probe. Slope gives the binding yield.
as §2

[7] = system: ECM proteins from fibrotic rat liver; assay: Relaxivity measurements in ECM; format: binding
Procedure: Liver fibrosis was induced in male Sprague Dawley rats by ligation of the common bile duct (CD®, Charles River Labs, Wilmington, MA). Ten days after common bile duct ligation, the fibrotic liver was harvested and sequential extractions were performed using the CNMCS (Cytosol/Nucleus/Membrane/Cytoskeleton) Compartmental Protein Extraction kit (Cytomol, Union City, CA) according to manufacturer's instructions. In brief, frozen tissues (150-200 mg) were homogenized and with solvents provided in the kit to sequentially to remove: cytosolic proteins, nuclear proteins, membrane proteins, and cytoskeletal proteins, leaving a final insoluble fraction enriched for ECM proteins.
Relaxivity Measurements in ECM
The enriched ECM proteins from 800 mg of fibrotic rat liver were suspended in 1 ml PBS. The ECM protein concentration was about 10% (5 mg in a 50 μL aliquot determined by weight after lyophilization). An aliquot of the solution (50 μL) was treated for 2 h at 37° C. with the corresponding molecular probe at a range of concentrations (0.01-0.1 mM) and then longitudinal (T1) relaxation measurements was recorded using a Bruker mq60 Minispec at 1.41 T and 37° C. For the blocking experiment with N2H4, a 100 fold-excess of N2H4 referred to the concentration of molecular probe was added to the solution before the incubation. Longitudinal (T1) relaxation times were measured via an inversion recovery experiment using 10 inversions of duration ranging between 0.05×T1 and 10×T1. Relaxivity (r1) was determined from the slope of a plot of 1/T1 vs metal concentration for 4 concentrations.

[8] = Reaction rates with butyraldehyde measured by HPLC-ICP-MS (Method B); format: physicochemical; conditions: Method b: butyraldehyde 100 μM, probe 25 μM, pH 7.40
Procedure: Method B: Reaction Rates of Compounds with Butyraldehyde Measured by HPLC-ICP-MS
The reactions were conducted in pH 7.40 phosphate-buffered with butyraldehyde concentration of 100 μM and hydrazine probes at 25 μM. Concentrations of unreacted starting material and condensation products were determined at 10 min time intervals over 2 hours based on their relative integrations. The values were fit to a standard first order rate constant linear equation and the rate constant was extracted from the slope.
Reaction with Butyraldehyde Monitored by HPLC-ICP-MS
Reactions were conducted in pH 7.4 phosphate-buffered saline with butyraldehyde concentration of 100 μM and hydrazine probes at 25 μM. Concentrations of unreacted starting material and condensation products were determined based on their relative integrations at 12 min time intervals over 2 hours.

[9] = Biodistribution of manganese in healthy mice 60 minutes post-injection; format: in vivo, mouse; conditions: 0.1 mmol/kg i.v.
Source text: To meet these requirements, the probes Mn-12, Mn-13 and Mn-14 were designed based on the stable Mn-1,4-DO2A chelate. […] This combination of stability, turn-on relaxivity, and low uptake in healthy liver indicate that Mn-12 is quite promising as a novel probe for liver fibrogenesis detection.

[10] = EGCG 100 mg/kg oral gavage daily for 11 days vs vehicle

For `O=C(O[C@@H]1Cc2c(O)cc(O)cc2O[C@@H]1c1cc(O)c(O)c(O)c1)c1cc(O)c(O)c(O)c1` [EGCG, epigallocatechin gallate], the “lung to muscle ΔCNR after Gd-9 injection, day 21 vs day 10” value ([1]; EGCG 100 mg/kg oral gavage daily for 11 days) was “significantly decreased”, the lung allysine content [1, 10] was “significantly reduced” and the “lung hydroxyproline (total collagen)” value [1, 10] was “reduced”.

For `NN1CCN(C(=O)CCOCCOCCOCCOCCNC(=O)CN2CCN(CC(=O)[O-])CCN(CC(=O)[O-])CC2)CC1.[Ga+3]` [Ga-1], the “k (second order rate constant)” value [2] was 0.06 M⁻¹ s⁻¹.

With `NC(Cn1cccc1)C(=O)NCCOCCOCCOCCNC(=O)CN1CCN(CC(=O)[O-])CCN(CC(=O)[O-])CC1.[Ga+3]` (stereo not shown) [Ga-2] the “k (second order rate constant)” value [2] was 0.11 M⁻¹ s⁻¹.

With `O=C([O-])CN1CCN(CC(=O)[O-])CCN(CC(=O)NCCOCCOCCOCCNC(=O)CN2C(=O)CSC2=S)CC1.[Ga+3]` [Ga-4] the “k (second order rate constant)” value [2] was 0.34 M⁻¹ s⁻¹.

For `NN1CCN(C(=O)CCC(C(=O)[O-])N2CCN(CC(=O)[O-])CCN(CC(=O)[O-])CCN(C(CCC(=O)N3CCNCC3)C(=O)[O-])CC2)CC1.[Gd+3]` (stereo not shown) [Gd-11], the “r1, PBS” value [3] was 6.2 mM⁻¹ s⁻¹, the “r1, +BSA” value [4] was 6.2 mM⁻¹ s⁻¹ and the “r1, +BSA-Ald” value [5] was 7.6 mM⁻¹ s⁻¹. For the same compound, the “r1, Bound to BSA-Ald” value [5] was 13.7 mM⁻¹ s⁻¹ and 13.8 mM⁻¹ s⁻¹, the “increase of r1 in BSA^Ald compared to PBS value” ([5]; 1.41 T) was 23% and the “equilibrium binding to BSA^Ald (binding yield)” value [6] was 19.2%. For the same compound, the “relaxivity in ECM” value ([7]; PBS, pH 7.4, 2 h, 37° C., 1.41T) was 6.7 mM⁻¹ s⁻¹ and the “relaxivity in ECM with 100-fold excess of hydrazine” value ([7]; aldehydes blocked with N2H4) was 6.1 mM⁻¹ s⁻¹.

In the case of `CCCCN1CCN(CCCC(=O)N2CCN(N)CC2)CCN(CC(=O)[O-])CCN(CC(=O)[O-])CC1.[Mn+2]` [Mn-13], the “k (second order rate constant)” value [8] is reported as 1.9 M⁻¹ s⁻¹, the “r1, PBS” value [3] is reported as 1.6 mM⁻¹ s⁻¹ and the “r1, +BSA” value [4] is reported as 1.9 mM⁻¹ s⁻¹. For the same compound, the “r1, +BSA-Ald” value [5] was 2.3 mM⁻¹ s⁻¹, the “r1, Bound to BSA-Ald” value [5] was 6.2 mM⁻¹ s⁻¹ and the “Mn liver levels in healthy mice” value [9] was “high Mn liver levels; also recorded: elevated levels”.

For `NNC(=O)CCCN1CCN(CCCC(=O)NN)CCN(CC(=O)[O-])CCN(CC(=O)[O-])CC1.[Mn+2]` [Mn-14], the “k (second order rate constant)” value [8] was 1.4 M⁻¹ s⁻¹, the “r1, PBS” value [3] was 1.5 mM⁻¹ s⁻¹ and the “r1, +BSA” value [4] was 1.8 mM⁻¹ s⁻¹. For the same compound, the “r1, +BSA-Ald” value [5] was 2.5 mM⁻¹ s⁻¹ and the “r1, Bound to BSA-Ald” value [5] was 7.3 mM⁻¹ s⁻¹.
